The record followed here is ChEMBL document CHEMBL4842396, “Synthesis of 2-Prenylated Alkoxylated Benzopyrans by Horner-Wadsworth-Emmons Olefination with PPARα/γ Agonist Activity” (ACS Med Chem Lett, 2021).

The target in test [1] is T1, Peroxisome proliferator-activated receptor alpha (Homo sapiens) (UniProt Q07869).
T1 sequence (whole entry): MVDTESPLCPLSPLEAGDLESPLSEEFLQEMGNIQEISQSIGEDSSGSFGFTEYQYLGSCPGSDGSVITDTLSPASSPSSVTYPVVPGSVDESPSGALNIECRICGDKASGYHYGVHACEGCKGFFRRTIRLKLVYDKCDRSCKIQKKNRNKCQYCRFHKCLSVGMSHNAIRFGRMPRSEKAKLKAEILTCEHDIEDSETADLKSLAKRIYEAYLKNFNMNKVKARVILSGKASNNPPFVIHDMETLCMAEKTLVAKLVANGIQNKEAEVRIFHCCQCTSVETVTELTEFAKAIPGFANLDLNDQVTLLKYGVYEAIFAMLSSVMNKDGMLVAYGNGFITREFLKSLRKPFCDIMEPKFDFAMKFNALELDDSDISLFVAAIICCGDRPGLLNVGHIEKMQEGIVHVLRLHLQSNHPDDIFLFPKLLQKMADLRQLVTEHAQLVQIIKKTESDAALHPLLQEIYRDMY
As to the kind of experiment: Agonist activity at human PPARalpha at 10 uM. As to conditions: filed as agonist.

The target in test [2] is T2, Peroxisome proliferator-activated receptor gamma (Homo sapiens) (UniProt P37231).
T2 sequence (whole entry): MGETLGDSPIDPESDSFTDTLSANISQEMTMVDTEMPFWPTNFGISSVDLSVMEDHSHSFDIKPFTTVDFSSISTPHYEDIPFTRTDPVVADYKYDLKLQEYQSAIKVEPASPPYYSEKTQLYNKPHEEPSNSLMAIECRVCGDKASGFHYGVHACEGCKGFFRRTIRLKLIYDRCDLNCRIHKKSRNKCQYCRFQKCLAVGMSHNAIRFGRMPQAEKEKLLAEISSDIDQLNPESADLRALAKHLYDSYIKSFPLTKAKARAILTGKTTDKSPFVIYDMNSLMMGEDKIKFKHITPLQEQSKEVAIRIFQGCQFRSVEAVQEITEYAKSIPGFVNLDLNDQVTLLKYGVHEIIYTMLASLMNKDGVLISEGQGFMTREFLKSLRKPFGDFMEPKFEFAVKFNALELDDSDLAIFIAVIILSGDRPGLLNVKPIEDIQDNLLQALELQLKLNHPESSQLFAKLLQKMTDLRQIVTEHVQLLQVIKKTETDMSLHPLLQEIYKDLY
As to the kind of experiment: Agonist activity at human PPARgamma at 10 uM. To be noted: filed as agonist.

The species named for test [3] is Homo sapiens. As to the kind of experiment: Selectivity for agonist activity at human PPARalpha over agonist activity at human PPARgamma.

Calls of active or inactive are those of the source. No cut-off for these calls is given here.

As to `CCOC(=O)/C(=C/CC/C(C)=C/CCC1(C)CCc2cc(OCc3ccccc3)ccc2O1)OCC` (configuration not stated), the outcome in test [1] and in test [2] was Active.

For `Cc1cccc(Nc2cc(Cl)nc(SCC(=O)O)n2)c1C`, the outcome in test [1] was Active.

With `CCOC(=O)/C(=C/CC/C(C)=C/CCC1(C)CCc2cc(OCc3ccccc3)ccc2O1)OCC(F)(F)F` (configuration not stated), the result in test [1] and in test [2] was Active.

`CCO/C(=C\CC/C(C)=C/CCC1(C)CCc2cc(OCc3ccccc3)ccc2O1)C(=O)O` (configuration not stated): the outcome in test [1] and in test [2] was Active. Further, in test [3], the Selectivity ratio turned out to be 0.64.

Turning to `CCCOc1ccc2c(c1)CCC(C)(CC/C=C(\C)CC/C=C(\OCC)C(=O)OCC)O2` (configuration not stated), the result in test [1] and in test [2] was Active.

Regarding `CC1(CC/C=C(\OCC(F)(F)F)C(=O)O)CCc2cc(OCc3ccccc3)ccc2O1` (configuration not stated), the result in test [1] and in test [2] was Active. Further, the Selectivity ratio in test [3] worked out at 1.73.

Consider `CCOC(=O)/C(=C/CCC1(C)CCc2cc(OCc3ccccc3)ccc2O1)OCC(F)(F)F` (configuration not stated), for which the outcome in test [1] and in test [2] was Active.

As for `CCOC(=O)/C(=C/CC/C(C)=C/CCC1(C)CCc2cc(OCc3ccc(F)cc3)ccc2O1)OCC` (configuration not stated), the outcome in test [1] and in test [2] was Active.
